Where a SMILES comes first, the peptide text is derived from it. The star is where a group is joined. Boc = CC(C)(C)OC(=O)*; CH2Cl = ClC*
Legend:
Papain [1] = molecular target: T1, Papain (Carica papaya, UniProt P00784); assay: Papain inhibition, Ki by Dixon plot (Table PKC1); type: biochemical; details: 0.05M Tris-HCl pH 7.5, 2 mM EDTA, 5 mM cysteine, 1% DMSO, 25° C., substrate Nα-Benzoyl-Arg-AMC; read-out: Ki P (Papain)
T1 sequence (P00784 134-345): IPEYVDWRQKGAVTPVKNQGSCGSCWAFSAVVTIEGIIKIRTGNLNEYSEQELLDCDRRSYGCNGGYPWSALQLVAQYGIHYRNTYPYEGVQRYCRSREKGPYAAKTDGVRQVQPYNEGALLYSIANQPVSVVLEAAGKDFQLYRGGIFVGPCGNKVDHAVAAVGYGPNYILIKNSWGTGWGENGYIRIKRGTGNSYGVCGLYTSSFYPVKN
Description: Various concentrations of inhibitors in dimethylsulfoxide (DMSO) were added to the assay mixture, which contained buffer and substrate. The reaction was started by the addition of the enzyme and the hydrolysis rates were followed spectrophotometrically or fluorimetrically. 88 mM KH2 PO4, 12 mM Na2 HPO4, 1.33 mM EDTA, 2.7 mM cysteine, pH 6.0 was used as a buffer for cathepsin B; and 20 mM Hepes, 10 mM CaCl2, 10 mM β-mercaptoethanol, pH 7.2 buffer was utilized for calpain I and calpain II.
All peptide thioester hydrolysis rates were measured with assay mixtures containing 4,4'-dithiodipyridine [e324=19800 M-1 cm-1; Grasetti & Murray, Arch. Biochem. Biophys. 119, pp 41-49 (1967)]. Papain was assayed with Bz-Arg-AMC or Bz-Arg-NA [Kanaoka et al., Chem. Pharm. Bull. 25, 3126-3128 (1977)], and the AMC (7-amino-4-methylcoumarin) release was followed fluorimetrically (excitation at 380 nm, and emission at 460 nm). Cathepsin B was assayed with Z-Arg-Arg-AFC [Barrett and Kirschke, Methods Enzymol. 80, 535-561 (1981)], and the AFC (7-amino-4-trifluoromethylcoumarin) release was followed fluorimetrically (excitation at 400 nm, and emission at 505 nm). Calpain I from human erythrocytes and calpain II from rabbit were assayed using Suc-Leu-Tyr-AMC [Sasaki et al., J. Biol. Chem. 259, 12489-12494 (1984), hereby incorporated by reference], and the AMC (7-amino-4-methylcoumarin) release was followed fluorimetrically (excitation at 380 nm, and emission at 460 nm). Enzymatic hydrolysis rates were measured at various substrate and inhibitor concentrations, and Ki values were determined by Dixon plot.
The inhibition constants for papain shown in Table PKC1 were measured in 0.05M Tris-HCl, pH 7.5 buffer, containing 2 mM EDTA, 5 mM cysteine (freshly prepared), 1% DMSO, at 25° C., using N^α -Benzoyl-Arg-AMC as a substrate, except that those values of inhibition constants for papain marked with an "e" in Table PKC1 were measured in 50 mM Tris-HCl, pH 7.5 buffer, containing 20 mM EDTA, 5 mM cysteine, 9% DMSO, at 25° C., using N^α -Benzoyl-Arg-NA as a substrate.

[2] = test system: Calpain activity (spectrin BDP's); assay: Transient ischemia in gerbils, spectrin BDP's in CA1 (Example 3B); type: in vivo, gerbil; details: CA1 region, 30 minutes after clamping
Description: Implantation surgeries and clamping of the carotid arteries were performed as above with a control-ischemia group (n=4) and a leupeptin-ischemia group (n=5). A third group of animals (n=4) received implantation with pumping of saline, but was not subjected to ischemia. Animals were sacrificed by decapitation 30 minutes after clamping of the arteries. The brains were rapidly removed and placed in cold homogenization buffer (0.32M sucrose, 10 mM Tris-HCl, 2 mM EDTA, 1 mM EGTA, 100 μM leupeptin and 1 μg/ml of the Halo-Ketone Compound, tos-phe-CH2 Cl (TPCK)). The CA1 region of the hippocampus was then dissected. The samples from both control and leupeptin treated animals were then prepared for SDS-PAGE and immunoblotting with labeled anti-spectrin antibody, as described above in connection with in vitro uses of the Calpain Inhibitors. […] These BDP's co-migrated with BDP's observed after in vitro proteolysis of spectrin with Calpain.

[3] = test system: gerbils subjected to transient ischemia; assay: Transient ischemia in gerbils, neuronal loss in CA1 (Example 3A); type: in vivo, gerbil; details: leupeptin 20 mg/ml intracerebroventricular perfusion 3 days before 10 min ischemia; 14 days later
Description: A small cannula was implanted in the right lateral ventricle of adult gerbils, and secured to the skull with dental cement. An Alzet micro-osmotic pump was attached to the cannula for intracerebroventricular perfusion. The pump was filled with either saline alone (control) or leupeptin (20 mg/ml in saline). After three days perfusion with either the control solution or with the leupeptin solution, transient ischemia was induced by bilaterally clamping the carotid arteries for a period of ten minutes. […] Fourteen days later, the animals were sacrificed by Nembutal overdose and transcardial perfusion of a 10% solution of paraformaldehyde in PBS. Coronal sections of the brain were stained with cresyl violet and were examined for the extent of neuronal loss.

Papain [4] = molecular target: T1, Papain; assay: Kapp/[I] progress curve method, Papain (Table 1C); type: biochemical; details: benzoyl-arg-4-nitroanilide
Description: (§1) The Halo-Ketone Peptides, like the substituted isocoumarins, are irreversible inhibitors of Calpain. We determined the Kapp /[I] values for various members of this class of compounds against Calpains I and II. For comparison, we also determined these values against the additional thiol proteases Papain and Cathepsin B for at least one Halo-Ketone Peptide.
(§2) We assayed Calpain I and II using Suc-leu-tyr-amidomethylcoumarin. Papain was assayed using benzoyl-arg-4-nitroanilide, and Cathepsin B (bovine) was assayed using CBZ-lys-4-nitrophenyl ester. We followed the progress curve method of Tian and Tsou, Biochemistry, 21:1028-1032 (1982), the disclosure of which is hereby incorporated by reference, to derive kinetic data. Briefly, this method makes use of the equation: [formula] where [P.infin. ] represents the concentration of product formed at a time approaching infinity, A is the Kapp in the presence of substrate (S), K is the Michaelis constant and [Y] is the concentration of the inhibitor. Since [S] and [Y] are known and V and K can be determined, Kapp can be readily determined.

Calpain II = assay: Kapp/[I] progress curve method, Calpain II (Table 1C); type: biochemical; parameters: unit not given here; details: Rabbit Calpain II, Suc-leu-tyr-amidomethylcoumarin
Description: as §1, §2

Cathepsin B = Cathepsin B (Bos taurus, UniProt P07688); assay: Kapp/[I] progress curve method, Cathepsin B (Table 1C); type: biochemical, bovine; details: CBZ-lys-4-nitrophenyl ester
Description: as §1, §2

Work on `CCOC(=O)C(=O)C(CC)NC(=O)[C@H](C)NC(=O)[C@H](C)NC(=O)OCc1ccccc1` (mixture of isomers) [Z-Ala-Ala-DL-Abu-COOEt, Z-Ala-Ala-DL-Abu-CO2 Et] yielded a Ki (Papain [1]) of 900 nM.
Work on `CCC(NC(=O)[C@@H]1CCCN1C(=O)[C@H](C)NC(=O)[C@H](C)NC(=O)CCC(=O)OC)C(=O)C(=O)OC` (mixture of isomers) [MeO-Suc-Ala-Ala-Pro-Abu-COOMe, MeO-Suc-Ala-Ala-Pro-DL-Abu-CO2 Me] yielded a Ki (Papain [1]) of 700 nM.
For `CC(=O)N[C@@H](CC(C)C)C(=O)N[C@@H](CC(C)C)C(=O)N[C@H](C=O)CCCNC(=N)N` [Leupeptin, Ac-Leu-Leu-Arg-H, reference compound], the “spectrin BDP's relative to control ischemia treated gerbils” value [2] was “approximately 25%” and the “loss of neurons in CA1 field” value [3] was 15%.
For `CC(C)CC(NC(=O)CNC(=O)OC(C)(C)C)C(=O)NC(Cc1ccccc1)C(=O)CCl` (stereo not drawn) [Boc-Gly-Leu-Phe-CH2 Cl] (Boc-Gly-Leu-Phe-CH2Cl; configuration not given here), the “Kapp/[I] P” value (Papain [4]) was 540000, the “Kapp/[I] CII” value (Calpain II) was 902000 and the “Kapp/[I] CB” value (Cathepsin B) was 290000.

Source: patent US5444042A, “Method of treatment of neurodegeneration with calpain inhibitors” (Cortex Pharmaceuticals, priority 1994, dated 1995)
